Patent EP0711275B1, “(THIO)CARBIMIDINIC ACID DERIVATIVES AND MEDICAMENTS CONTAINING THE SAME” (BOEHRINGER MANNHEIM GMBH, priority 1993, dated 1995)
Converted amounts (≈) assume the structure as drawn. Read-outs that look alike come from different tables or passages of the source.

How the values were obtained:
[1] = molecular target: T1, reversen Transkriptase RT (Human immunodeficiency virus type 1 group M subtype B, UniProt P04585); assay: Inhibition of RT, non-radioactive microtitre plate test; type: biochemical; details: inhibition of RT activity; incorporated nucleotides determined photometrically; read-out: IC50-Werte RT (converted)
T1 construct: Hemmung der reversen Transkriptase RT
Text: (§1) Die antivirale Wirksamkeit einiger ausgewählter Substanzen wurde sowohl in vivo als auch in vitro (Hemmung der reversen Transkriptase RT) untersucht. a) MT2/MTT-Testsystem (in vivo) MT2-Zellen werden mit HIV-1 (Isolat HTLV III B) infiziert. Nach 7 Tagen Inkubation erfolgt der MTT-Test, der die Vitalität der Zellen bestimmt. Die Vitalität der Zellen korreliert mit dem Ausmaß der Virusproduktion. In der folgenden Tabelle werden IC50-Werte angegeben, d. h. diejenige Konzentration der Substanzen, die eine 50%-ige Inhibierung bewirken. b) Hemmung der RT (in vitro) In einem nicht radioaktiven Mikrotiterplattentest wird das Ausmaß der Inhibierung der Aktivität der RT bestimmt. Die Menge an eingebauten Nukleotiden in die zu synthetisierende DNA wird photometrisch bestimmt.

[2] = test system: HIV-1 (Isolat HTLV III B); assay: MT2/MTT test system (antiviral activity in HIV-1-infected MT2 cells); type: cell-based; details: read-out: IC50-Werte MT2
Text: as §1

[3] = Human immunodeficiency virus 1, 168 h, MT2-Zellen infected with HIV-1 (Isolat HTLV III B), 7 days incubation, MTT test of cell vitality

Structure (SMILES) | IC50 [1] | IC50 [2, 3] | IC50 ([2]; Human immunodeficiency virus 1, MT2, 168 h)
CC(C)CC(C)SC(=N)NC(=S)Nc1ccc(Cl)cc1 (stereo not shown) [Beispiel 1, N-(4-Chlorphenylaminothiocarbonyl)thiocarbamidinsäure 2-(4-methylpentyl)ester] | 1820 nM | 0.6 µg/mL (≈ 1.82 µM) | –
CC(C)CC(C)SC(=N)NC(=S)Nc1cccc(F)c1 (stereo not shown) [Beispiel 2b, N-(3-Fluorphenylaminothiocarbonyl)thiocarbamidinsäure 2-(4-methylpentyl)ester] | 3190 nM | 3.3 µg/mL (≈ 10.5 µM) | –
N=C(NC(=S)Nc1ccc(Cl)cc1)SCc1ccccc1 [Beispiel 2e, N-(4-Chlorphenylaminothiocarbonyl)thiocarbamidinsäure-benzylester] | 7290 nM | < 3 µg/mL | –
N=C(NC(=S)Nc1ccc(Cl)cc1)SC1CCCCC1 [Beispiel 2f, N-(4-Chlorphenylaminothiocarbonyl)thiocarbamidinsäure-cyclohexylester] | 314 nM | < 3 µg/mL | –
N=C(NC(=S)Nc1ccc(Cl)cc1)SCc1cccc(Cl)c1 [Beispiel 2g, N-(4-Chlorphenylaminothiocarbonyl)thiocarbamidinsäure-3-chlorbenzylester] | 891 nM | – | < 3 µg/mL
CCCCSC(=N)NC(=S)Nc1ccc(Cl)cc1 [Beispiel 2j, N-(4-Chlorphenylaminothiocarbonyl)thiocarbamidinsäure-butylester] | 2520 nM | < 3 µg/mL | –
N=C(NC(=S)Nc1ccc(Cl)cc1)Sc1ccccc1 [Beispiel 2n, N-(4-Chlorphenylaminothiocarbonyl)thiocarbamidinsäure-phenylester] | 2800 nM | – | –
